Measurements reported in patent publication US9249125B2, “Pyrazole derivatives as p38 MAP inhibitors” (RESPIVERT LIMITED, priority 2012, dated 2016).

Tests used:
[1] = biological target: p38 MAPKα (Homo sapiens (Human), UniProt Q16539); assay: p38 MAPKα enzyme inhibition (FRET, Z-LYTE); type: biochemical
Procedure: (§1) The enzyme inhibitory activities of compounds disclosed herein are determined by FRET using synthetic peptides labelled with both donor and acceptor fluorophores (Z-LYTE, Invitrogen Ltd., Paisley, UK).
The inhibitory activities of test compounds against the p38 MAPKα isoform (MAPK14: Invitrogen), are evaluated indirectly by determining the level of activation/phosphorylation of the down-stream molecule, MAPKAP-K2. The p38 MAPKα protein (80 ng/mL, 2.5 μL) is mixed with the test compound (2.5 μL of either 4 μg/mL, 0.4 μg/mL, 0.04 μg/mL or 0.004 μg/mL) for 2 hr at RT. […] The mixture is incubated for 1 hr at RT. Development reagent (protease, 5 μL) is added for 1 hr prior to detection in a fluorescence microplate reader (Varioskan® Flash, ThermoFisher Scientific).
(§2) In all cases, the site-specific protease cleaves non-phosphorylated peptide only and eliminates the FRET signal. Phosphorylation levels of each reaction are calculated using the ratio of coumarin emission (donor) over fluorescein emission (acceptor), for which low ratios indicate high phosphorylation and high ratios indicate low phosphorylation levels.

[2] = test system: LPS-induced TNFα release in d-U937 cells; assay: LPS-induced TNFα release in d-U937 cells; type: cell-based; conditions: Homo sapiens, dU937, relative to 10 μg/mL BIRB796, read-out: LPS Induced Release of Cytokine in d-937 Cells TNFα REC50
Procedure: (§3) U937 cells, a human monocytic cell line, are differentiated into macrophage-type cells by incubation with PMA (100 ng/mL) for 48 to 72 hr. Cells are pre-incubated with final concentrations of test compound for 2 hr and are then stimulated with LPS (0.1 μg/mL) (from E. coli: O111:B4, Sigma) for 4 hr. The supernatant is collected for determination of TNFα and IL-8 concentrations by sandwich ELISA (Duo-set, R&D systems). […] The relative 50% effective concentration (REC50) is determined from the resultant concentration-response curve. The inhibition of IL-8 production is calculated at each concentration of test compound by comparison with vehicle control. […] (b) LPS-Induced TNFα/IL-8 Release in PBMC Cells

[3] = biological target: Syk (Homo sapiens (Human), UniProt P43405); assay: Syk enzyme inhibition (FRET, Z-LYTE); type: biochemical
Procedure: as §1
(§4) The relevant enzyme (3000 ng/mL or 2000 ng/mL respectively, 2.5 μL) is incubated with the test compound (either 4 μg/mL, 0.4 μg/mL, 0.04 μg/mL, or 0.004 μg/mL, 2.5 μL each) for 2 hr at RT. The FRET peptides (8 μM, 2.5 μL), and appropriate ATP solutions (2.5 μL, 800 μM for c-Src, and 60 μM ATP for Syk) are then added to the enzymes/compound mixtures and incubated for 1 hr. Development reagent (protease, 5 μL) is added for 1 hr prior to detection in a fluorescence microplate reader (Varioskan® Flash, ThermoFisher Scientific).
as §2

[4] = test system: d-U937 cells; assay: Cell viability: MTT assay; type: cell-based, human; conditions: 1 μg/mL
Procedure: Differentiated U937 cells are pre-incubated with each test compound (final concentration 1 μg/mL or 10 μg/mL in 200 μL media indicated below) under two protocols: the first for 4 hr in 5% FCS RPMI1640 media and the second in 10% FCS RPMI1640 media for 24 h. The supernatant is replaced with new media (200 μL) and MTT stock solution (10 μL, 5 mg/mL) is added to each well. After incubation for 1 hr the media are removed, DMSO (200 μL) is added to each well and the plates are shaken lightly for 1 hr prior to reading the absorbance at 550 nm. The percentage loss of cell viability is calculated for each well relative to vehicle (0.5% DMSO) treatment. Consequently an apparent increase in cell viability for drug treatment relative to vehicle is tabulated as a negative percentage.

[5] = test system: Poly I:C-induced ICAM-1 expression in BEAS2B cells; assay: Poly I:C-induced ICAM-1 expression in BEAS2B cells; type: cell-based; conditions: Homo sapiens, BEAS-2B, read-out: Poly IC induced ICAM1 in BEAS2B IC50
Procedure: Poly I:C is used in these studies as a simple, RNA virus mimic. Poly I:C-Oligofectamine mixture (1 μg/mL Poly I:C, ±2% Oligofectamine, 25 uL) (Invivogen Ltd., San Diego, Calif., and Invitrogen, Carlsbad, Calif., respectively) is transfected into BEAS2B cells (human bronchial epithelial cells, ATCC). Cells are pre-incubated with final concentrations of test compounds for 2 hr and the level of ICAM1 expression on the cell surface is determined by cell-based ELISA. At a time point 18 hr after poly I:C transfection, cells are fixed with 4% formaldehyde in PBS (100 μL) and then endogenous peroxidase is quenched by the addition of washing buffer (100 μL, 0.05% Tween in PBS: PBS-Tween) containing 0.1% sodium azide and 1% hydrogen peroxide. Cells are washed with wash-buffer (3×200 μL). and after blocking the wells with 5% milk in PBS-Tween (100 μL) for 1 hr, the cells are incubated with anti-human ICAM-1 antibody (50 μL) (Cell Signaling Technology, Danvers, Mass.) in 1% BSA PBS overnight at 4° C.
The cells are washed with PBS-Tween (3×200 μL) and incubated with the secondary antibody (100 μL) (HRP-conjugated anti-rabbit IgG, Dako Ltd., Glostrup, Denmark). The cells are then incubated with of substrate (50 μL) for 2-20 min, followed by the addition of stop solution (50 μL, 1N H2SO4). The ICAM-1 signal is detected by reading and reading the absorbance at 450 nm against a reference wavelength of 655 nm using a spectrophotometer. The cells are then washed with PBS-Tween (3×200 μL) and total cell numbers in each well are determined by reading absorbance at 595 nm after Crystal Violet staining (50 μL of a 2% solution in PBS) and elution by 1% SDS solution (100 μL) in distilled water. The measured OD 450-655 readings are corrected for cell number by dividing with the OD595 reading in each well.

[6] = test system: LPS-induced IL-8 release in d-U937 cells; assay: LPS-induced IL-8 release in d-U937 cells; type: cell-based; conditions: Homo sapiens, dU937, read-out: LPS Induced Release of Cytokine in d-937 Cells IL-8 IC50
Procedure: as §3

[7] = biological target: cSrc (Homo sapiens (Human), UniProt P12931); assay: c-Src enzyme inhibition (FRET, Z-LYTE); type: biochemical
Chain of cSrc (P12931 whole entry, looked up): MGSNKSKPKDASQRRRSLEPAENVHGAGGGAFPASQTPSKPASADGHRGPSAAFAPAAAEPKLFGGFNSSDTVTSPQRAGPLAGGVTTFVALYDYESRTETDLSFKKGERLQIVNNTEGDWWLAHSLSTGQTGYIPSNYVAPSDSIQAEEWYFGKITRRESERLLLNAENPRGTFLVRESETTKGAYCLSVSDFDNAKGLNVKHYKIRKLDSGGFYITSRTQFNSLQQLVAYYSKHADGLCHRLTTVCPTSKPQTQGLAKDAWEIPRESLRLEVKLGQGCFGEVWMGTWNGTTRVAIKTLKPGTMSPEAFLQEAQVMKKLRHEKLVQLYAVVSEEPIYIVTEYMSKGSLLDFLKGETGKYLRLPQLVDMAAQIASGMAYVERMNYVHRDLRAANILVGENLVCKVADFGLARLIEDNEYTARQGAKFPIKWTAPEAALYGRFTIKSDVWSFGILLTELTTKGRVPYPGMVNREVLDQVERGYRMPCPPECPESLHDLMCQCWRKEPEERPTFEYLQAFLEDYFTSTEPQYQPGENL
Procedure: as §1, §4, §2

[8] = biological target: GSK3α (Homo sapiens (Human), UniProt P49840); assay: GSK 3α enzyme inhibition (FRET, Z-LYTE); type: biochemical
Chain of GSK3α (P49840 whole entry): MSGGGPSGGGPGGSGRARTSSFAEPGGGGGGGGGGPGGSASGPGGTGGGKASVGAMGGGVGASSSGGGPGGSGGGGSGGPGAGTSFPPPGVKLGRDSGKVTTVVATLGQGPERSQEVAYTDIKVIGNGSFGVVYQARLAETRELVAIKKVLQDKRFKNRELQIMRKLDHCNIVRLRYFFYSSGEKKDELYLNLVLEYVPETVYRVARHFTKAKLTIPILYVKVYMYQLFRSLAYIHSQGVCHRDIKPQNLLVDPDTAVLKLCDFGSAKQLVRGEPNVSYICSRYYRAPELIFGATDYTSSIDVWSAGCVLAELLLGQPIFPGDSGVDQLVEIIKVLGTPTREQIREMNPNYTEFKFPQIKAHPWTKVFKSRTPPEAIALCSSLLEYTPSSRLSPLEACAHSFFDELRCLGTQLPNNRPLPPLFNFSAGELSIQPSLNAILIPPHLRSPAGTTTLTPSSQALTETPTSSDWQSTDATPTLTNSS
Procedure: as §1
The inhibitory activities of compounds of the invention against the GSK 3α enzyme isoform (Invitrogen), are evaluated by determining the level of activation/phosphorylation of the target peptide. The GSK3-α protein (500 ng/mL, 2.5 μL) is mixed with the test compound (2.5 μL at either 4 μg/mL, 0.4 μg/mL, 0.04 μg/mL, or 0.004 μg/mL) for 2 hr at RT. The FRET peptide (8 μM, 2.5 μL), which is a phosphorylation target for GSK3α, and ATP (40 μM, 2.5 μL) are then added to the enzyme/compound mixture and the resulting mixture incubated for 1 hr. Development reagent (protease, 5 μL) is added for 1 hr prior to detection in a fluorescence microplate reader (Varioskan® Flash, ThermoFisher Scientific).
as §2

Chain of p38 MAPKα (Q16539 whole entry): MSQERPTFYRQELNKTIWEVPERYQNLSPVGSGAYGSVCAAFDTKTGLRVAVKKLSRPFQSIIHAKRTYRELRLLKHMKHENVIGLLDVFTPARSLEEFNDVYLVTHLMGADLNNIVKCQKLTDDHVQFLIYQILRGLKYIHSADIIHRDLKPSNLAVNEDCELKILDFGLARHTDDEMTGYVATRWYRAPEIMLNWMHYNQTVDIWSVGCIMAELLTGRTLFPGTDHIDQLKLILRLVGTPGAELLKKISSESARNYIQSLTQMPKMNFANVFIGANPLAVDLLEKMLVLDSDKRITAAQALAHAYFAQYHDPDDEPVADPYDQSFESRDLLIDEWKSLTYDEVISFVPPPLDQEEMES

`CC(C)(C)c1cc(NC(=O)Nc2ccc(Oc3ccnc(Nc4ccc5c(c4)COC5)n3)c3ccccc23)n(-c2ccc(OCCN3CCOCC3)cc2)n1` [Example 60, 1-(3-(tert-butyl)-1-(4-(2-morpholinoethoxy)phenyl)-1H-pyrazol-5-yl)-3-(4-((2-((1,3-dihydroisobenzofuran-5-yl)amino)pyrimidin-4-yl)oxy)naphthalen-1-yl)urea] showed an IC50 [1] of 94 nM, an EC50 [2] of 1.8 nM and an IC50 [3] of 13 nM. For the same molecule, the “MTT Assay Cell viability at time point in d-U937 cells 4 h” value [4] was “−ve (−ve and +ve indicate that the value is below and above respectively, the no significant effect threshold, defined as 30% inhibition at 1 μg/mL at the time point indicated.)”, the “MTT Assay Cell viability at time point in d-U937 cells 24 h” value [4] was “−ve (−ve and +ve indicate that the value is below and above respectively, the no significant effect threshold, defined as 30% inhibition at 1 μg/mL at the time point indicated.)” and the IC50 [5] was 1.4 nM. For the same molecule, the IC50 [6] was 10.3 nM, the IC50 [7] was 2 nM and the IC50 [8] was 686 nM.

For `CC(C)(C)c1cc(NC(=O)Nc2ccc(Oc3ccnc(Nc4ccc5[nH]ncc5c4)n3)c3ccccc23)n(-c2cccc(CN3CCCC3=O)c2)n1` [Example 49, 1-(4-((2-((1H-indazol-5-yl)amino)pyrimidin-4-yl)oxy)naphthalen-1-yl)-3-(3-(tert-butyl)-1-(3-((2-oxopyrrolidin-1-yl)methyl)phenyl)-1H-pyrazol-5-yl)urea], the IC50 [1] was 29 nM, the EC50 [2] was 2.5 nM and the IC50 [3] was 12 nM. For the same molecule, the “MTT Assay Cell viability at time point in d-U937 cells 4 h” value [4] was “−ve (−ve and +ve indicate that the value is below and above respectively, the no significant effect threshold, defined as 30% inhibition at 1 μg/mL at the time point indicated.)”, the “MTT Assay Cell viability at time point in d-U937 cells 24 h” value [4] was “−ve (−ve and +ve indicate that the value is below and above respectively, the no significant effect threshold, defined as 30% inhibition at 1 μg/mL at the time point indicated.)” and the IC50 [5] was 2.2 nM. The IC50 [6] was 9.7 nM, the IC50 [7] was 5 nM and the IC50 [8] was 1350 nM.

`Cc1ccc(-n2nc(C(C)(C)C)cc2NC(=O)Nc2ccc(Oc3ccnc(Nc4cc(C)c5[nH]ncc5c4)n3)c3ccccc23)cc1` [Example 27, 1-(3-(tert-butyl)-1-(p-tolyl)-1H-pyrazol-5-yl)-3-(4-((2-((7-methyl-1H-indazol-5-yl)amino)pyrimidin-4-yl)oxy)naphthalen-1-yl)urea] showed an IC50 [1] of 263 nM, an EC50 [2] of 2 nM and an IC50 [3] of 17 nM. For the same molecule, the “MTT Assay Cell viability at time point in d-U937 cells 4 h” value [4] was “−ve (−ve and +ve indicate that the value is below and above respectively, the no significant effect threshold, defined as 30% inhibition at 1 μg/mL at the time point indicated.)”, the “MTT Assay Cell viability at time point in d-U937 cells 24 h” value [4] was “−ve (−ve and +ve indicate that the value is below and above respectively, the no significant effect threshold, defined as 30% inhibition at 1 μg/mL at the time point indicated.)” and the IC50 [5] was 2.4 nM. For the same molecule, the IC50 [6] was 0.7 nM, the IC50 [7] was 11 nM and the IC50 [8] was greater than 1570 nM.

Molecule `Cc1ccc(-n2nc(C(C)(C)C)cc2NC(=O)Nc2ccc(Oc3ccnc(Nc4ccc5c(c4)CC(=O)N5)n3)c3ccccc23)cc1` [Example 19, 1-(3-(tert-butyl)-1-(p-tolyl)-1H-pyrazol-5-yl)-3-(4-((2-((2-oxoindolin-5-yl)amino)pyrimidin-4-yl)oxy)naphthalen-1-yl)urea] has an IC50 [1] of 12 nM, an EC50 [2] of 1.8 nM and an IC50 [3] of 32 nM. The “MTT Assay Cell viability at time point in d-U937 cells 4 h” value [4] was “−ve (−ve and +ve indicate that the value is below and above respectively, the no significant effect threshold, defined as 30% inhibition at 1 μg/mL at the time point indicated.)”, the “MTT Assay Cell viability at time point in d-U937 cells 24 h” value [4] was “−ve (−ve and +ve indicate that the value is below and above respectively, the no significant effect threshold, defined as 30% inhibition at 1 μg/mL at the time point indicated.)” and the IC50 [5] was 2.4 nM. It also gave an IC50 [6] of 1.9 nM, an IC50 [7] of 7 nM and an IC50 [8] of 1010 nM.

`CC(C)(C)c1cc(NC(=O)Nc2ccc(Oc3ccnc(Nc4ccc5[nH]ncc5c4)n3)c3ccccc23)n(-c2ccc(=O)n(CCO)c2)n1` [Example 86, 1-(4-((2-((1H-indazol-5-yl)amino)pyrimidin-4-yl)oxy)naphthalen-1-yl)-3-(3-(tert-butyl)-1-(1-(2-hydroxyethyl)-6-oxo-1,6-dihydropyridin-3-yl)-1H-pyrazol-5-yl)urea] showed an IC50 [1] of 7 nM, an EC50 [2] of 2.2 nM and an IC50 [3] of 16 nM. For the same molecule, the “MTT Assay Cell viability at time point in d-U937 cells 4 h” value [4] was “−ve (−ve and +ve indicate that the value is below and above respectively, the no significant effect threshold, defined as 30% inhibition at 1 μg/mL at the time point indicated.)”, the “MTT Assay Cell viability at time point in d-U937 cells 24 h” value [4] was “−ve (−ve and +ve indicate that the value is below and above respectively, the no significant effect threshold, defined as 30% inhibition at 1 μg/mL at the time point indicated.)” and the IC50 [5] was 8.3 nM. The IC50 [6] was 4.1 nM, the IC50 [7] was less than 1 nM and the IC50 [8] was 827 nM.
